Key:
BRD4-BD2 = BRD4-BD2 (Homo sapiens (Human), UniProt O60885); experiment: BRD4-BD2 AlphaScreen assay; assay type: binding; conditions: H4Ac4 peptide, read-out: BRD4 BD-2 enzyme IC50
Experimental: (§1) BRD4-BD1 and BRD4-BD2 assays were conducted in white 384-well polystyrene plate in a final volume of 20 μL for BD1 and 40 μL for BD2. Inhibitors were first serially diluted in DMSO and added to the plate wells before the addition of other reaction components. […] After plate sealing, the plate was incubated in the dark at room temperature for 75 min. before reading on a PHERAstar FS plate reader (BMG Labtech). IC50 determination was performed by fitting the curve of percent control activity versus the log of the inhibitor concentration using the GraphPad Prism 5.0 software.

BRD4-BD1 = BRD4-BD1 (Homo sapiens (Human), UniProt O60885); experiment: BRD4-BD1 AlphaScreen assay; assay type: binding; conditions: H4Ac4 peptide, read-out: BRD4 BD-1 enzyme IC50
Experimental: as §1

SMILES	IC50 (BRD4-BD2) [nM]	IC50 (BRD4-BD1) [nM]
CC(=O)N1C[C@@H](C)N(c2nc3ccc(-c4c(C)noc4C)c4c3n2[C@@H](c2ccccn2)CO4)[C@@H](C)C1 (atropisomer, axis not shown) [Example 2, (4S)-2-[(2R,6S)-4-Acetyl-2,6-dimethylpiperazin-1-yl]-7-(3,5-dimethylisoxazol-4-yl)-4-pyridin-2-yl-4,5-dihydroimidazo[1,5,4-de][1,4]benzoxazine]	< 25	< 25
Cc1noc(C)c1-c1ccc2nc(N3CCN(C(=O)C(C)C)CC3)n3c2c1OC[C@@H]3c1ccccn1 [Example 1, (4S)-7-(3,5-Dimethylisoxazol-4-yl)-2-(4-isobutyrylpiperazin-1-yl)-4-pyridin-2-yl-4,5-dihydroimidazo[1,5,4-de][1,4]benzoxazine]	< 25	< 25
CC(=O)N1CCN(c2nc3ccc(-c4c(C)noc4C)c4c3n2[C@@H](c2ccccn2)CO4)[C@@H](C)C1 [Example 3, (4S)-2-[(2S)-4-acetyl-2-methylpiperazin-1-yl]-7-(3,5-dimethylisoxazol-4-yl)-4-pyridin-2-yl-4,5-dihydroimidazo[1,5,4-de][1,4] benzoxazine]	< 25	25 to 100
CC(=O)N1CC2CC1CN2c1nc2ccc(-c3c(C)noc3C)c3c2n1[C@@H](c1ccccn1)CO3 (stereo partly drawn) [Example 4, (4S)-2-(5-acetyl-2,5-diazabicyclo[2.2.1]hept-2-yl)-7-(3,5-dimethylisoxazol-4-yl)-4-pyridin-2-yl-4,5-dihydroimidazo[1,5,4-de][1,4]benzoxazine]	< 25	< 25
CC(=O)NC1(C)CCN(c2nc3ccc(-c4c(C)noc4C)c4c3n2[C@@H](c2ccccn2)CO4)CC1 [Example 5, N-{1-[(4S)-7-(3,5-dimethylisoxazol-4-yl)-4-pyridin-2-yl-4,5-dihydroimidazo[1,5,4-de][1,4]benzoxazin-2-yl]-4-methylpiperidin-4-yl}acetamide]	< 25	25 to 100
Cc1noc(C)c1-c1ccc2nc(N3CCN(C(=O)C(C)C)[C@@H](C)C3)n3c2c1OC[C@@H]3c1ccccn1 [Example 9, (4S)-7-(3,5-dimethylisoxazol-4-yl)-2-[(3S)-4-isobutyryl-3-methylpiperazin-1-yl]-4-pyridin-2-yl-4,5-dihydroimidazo[1,5,4-de][1,4]benzoxazine]	< 25	< 25
Cc1noc(C)c1-c1ccc2nc(N3CCN(C(=O)C(C)(C)C)CC3)n3c2c1OC[C@@H]3c1ccccn1 [Example 26, (4S)-7-(3,5-dimethylisoxazol-4-yl)-2-[4-(2,2-dimethylpropanoyl)piperazin-1-yl]-4-pyridin-2-yl-4,5-dihydroimidazo[1,5,4-de][1,4]benzoxazine]	< 25	< 25
Cc1noc(C)c1-c1ccc2nc(N3CCN(C(=O)C4CCC4)CC3)n3c2c1OC[C@@H]3c1ccccn1 [Example 28, (4S)-2-[4-(cyclobutylcarbonyl)piperazin-1-yl]-7-(3,5-dimethylisoxazol-4-yl)-4-pyridin-2-yl-4,5-dihydroimidazo[1,5,4-de][1,4]benzoxazine]	< 25	< 25
COCC(=O)N1CCN(c2nc3ccc(-c4c(C)noc4C)c4c3n2[C@@H](c2ccccn2)CO4)CC1 [Example 29, (4S)-7-(3,5-dimethylisoxazol-4-yl)-2-[4-(methoxyacetyl)piperazin-1-yl]-4-pyridin-2-yl-4,5-dihydroimidazo[1,5,4-de][1,4]benzoxazine]	< 25	< 25

Further lines, results first:

IC50 (BRD4-BD2) [nM]	IC50 (BRD4-BD1) [nM]	SMILES
< 25	< 25	CCC(=O)N1CCN(c2nc3ccc(-c4c(C)noc4C)c4c3n2[C@@H](c2ccccn2)CO4)C[C@@H]1C [Example 8, (4S)-7-(3,5-dimethylisoxazol-4-yl)-2-[(3S)-3-methyl-4-propionylpiperazin-1-yl]-4-pyridin-2-yl-4,5-dihydroimidazo[1,5,4-de][1,4]benzoxazine]
< 25	< 25	CCCC(=O)NC1CCN(c2nc3ccc(-c4c(C)noc4C)c4c3n2[C@@H](c2ccccn2)CO4)CC1 [Example 10, N-{1-[(4S)-7-(3,5-dimethylisoxazol-4-yl)-4-pyridin-2-yl-4,5-dihydroimidazo[1,5,4-de][1,4]benzoxazin-2-yl]piperidin-4-yl}butanamide]
< 25	< 25	Cc1noc(C)c1-c1ccc2nc(N3CCC(NC(=O)C(C)(C)C)CC3)n3c2c1OC[C@@H]3c1ccccn1 [Example 11, N-{1-[(4S)-7-(3,5-dimethylisoxazol-4-yl)-4-pyridin-2-yl-4,5-dihydroimidazo[1,5,4-de][1,4]benzoxazin-2-yl]piperidin-4-yl}-2,2-dimethylpropanamide]
< 25	< 25	Cc1noc(C)c1-c1ccc2nc(N3CCC(NC(=O)C4CCC4)CC3)n3c2c1OC[C@@H]3c1ccccn1 [Example 13, N-{1-[(4S)-7-(3,5-dimethylisoxazol-4-yl)-4-pyridin-2-yl-4,5-dihydroimidazo[1,5,4-de][1,4]benzoxazin-2-yl]piperidin-4-yl}cyclobutanecarboxamide]
< 25	< 25	CCC(=O)N(C)C1CCN(c2nc3ccc(-c4c(C)noc4C)c4c3n2[C@@H](c2ccccn2)CO4)CC1 [Example 15, N-{1-[(4S)-7-(3,5-dimethylisoxazol-4-yl)-4-pyridin-2-yl-4,5-dihydroimidazo[1,5,4-de][1,4]benzoxazin-2-yl]piperidin-4-yl}-N-methylpropanamide]
< 25	< 25	CCCC(=O)N(C)C1CCN(c2nc3ccc(-c4c(C)noc4C)c4c3n2[C@@H](c2ccccn2)CO4)CC1 [Example 16, N-{1-[(4S)-7-(3,5-dimethylisoxazol-4-yl)-4-pyridin-2-yl-4,5-dihydroimidazo[1,5,4-de][1,4]benzoxazin-2-yl]piperidin-4-yl}-N-methylbutanamide]
< 25	< 25	Cc1noc(C)c1-c1ccc2nc(N3CCC(N(C)C(=O)C(C)C)CC3)n3c2c1OC[C@@H]3c1ccccn1 [Example 17, N-{1-[(4S)-7-(3,5-dimethylisoxazol-4-yl)-4-pyridin-2-yl-4,5-dihydroimidazo[1,5,4-de][1,4]benzoxazin-2-yl]piperidin-4-yl}-N,2-dimethylpropanamide]
< 25	< 25	Cc1noc(C)c1-c1ccc2nc(N3CCC(N(C)C(=O)C(C)(C)C)CC3)n3c2c1OC[C@@H]3c1ccccn1 [Example 18, N-{1-[(4S)-7-(3,5-dimethylisoxazol-4-yl)-4-pyridin-2-yl-4,5-dihydroimidazo[1,5,4-de][1,4]benzoxazin-2-yl]piperidin-4-yl}-N,2,2-trimethylpropanamide]
< 25	< 25	Cc1noc(C)c1-c1ccc2nc(N3CCC(N(C)C(=O)C4CC4)CC3)n3c2c1OC[C@@H]3c1ccccn1 [Example 19, N-{1-[(4S)-7-(3,5-dimethylisoxazol-4-yl)-4-pyridin-2-yl-4,5-dihydroimidazo[1,5,4-de][1,4]benzoxazin-2-yl]piperidin-4-yl}-N-methylcyclopropanecarboxamide]
< 25	< 25	Cc1noc(C)c1-c1ccc2nc(N3CCC(N(C)C(=O)C4CCC4)CC3)n3c2c1OC[C@@H]3c1ccccn1 [Example 20, N-{1-[(4S)-7-(3,5-dimethylisoxazol-4-yl)-4-pyridin-2-yl-4,5-dihydroimidazo[1,5,4-de][1,4]benzoxazin-2-yl]piperidin-4-yl}-N-methylcyclobutanecarboxamide]
< 25	< 25	CCS(=O)(=O)N(C)C1CCN(c2nc3ccc(-c4c(C)noc4C)c4c3n2[C@@H](c2ccccn2)CO4)CC1 [Example 23, N-{1-[(4S)-7-(3,5-dimethylisoxazol-4-yl)-4-pyridin-2-yl-4,5-dihydroimidazo[1,5,4-de][1,4]benzoxazin-2-yl]piperidin-4-yl}-N-methylethanesulfonamide]
< 25	< 25	Cc1noc(C)c1-c1ccc2nc(N3CCC(N(C)S(=O)(=O)C4CC4)CC3)n3c2c1OC[C@@H]3c1ccccn1 [Example 24, N-{1-[(4S)-7-(3,5-dimethylisoxazol-4-yl)-4-pyridin-2-yl-4,5-dihydroimidazo[1,5,4-de][1,4]benzoxazin-2-yl]piperidin-4-yl}-N-methylcyclopropanesulfonamide]
< 25	< 25	CCCC(=O)N1CCN(c2nc3ccc(-c4c(C)noc4C)c4c3n2[C@@H](c2ccccn2)CO4)CC1 [Example 25, (4S)-2-(4-butyrylpiperazin-1-yl)-7-(3,5-dimethylisoxazol-4-yl)-4-pyridin-2-yl-4,5-dihydroimidazo[1,5,4-de][1,4]benzoxazine]

Reference: patent publication US9834565B2, “Tricyclic heterocycles as bet protein inhibitors” (Incyte Corporation, priority 2014, dated 2017)
